Reference: patent publication US11351170B2, “Substituted pyrimidines as CDK4/6 inhibitors” (priority 2017, dated 2022)
“And” between values parts separate entries of the source, which are not always exact repeats. Equal values may be shown once. Read-outs that look alike come from different tables or passages of the source.

Columns and labels:
CDK4 = CDK4 (Homo sapiens (Human), UniProt P11802); test: CDK4 Inhibition Assay; type: biochemical
Description: (§1) CDK4 Inhibition Assay. […] The same volume of DMSO was adopted as high control (HC). 20 nL of compound solution in DMSO (diluted) were dispensed into anew 384-well assay plate by Echo 550. […] Kinase assay buffer supplemented with substrate peptides was employed as low control (LC) to monitor the background. 400 µM ATP was prepared in kinase assay buffer containing and 15 μL of ATP solution was added to each well to start the reaction. The assay plate was incubated at 25° C. for 90 minutes and the reaction was stopped by adding 40 μL of 0.5 M EDTA.
Phosphorylated fluorescent-tagged peptides were differentiated from non-phosphorylated peptides by separating using Caliper EZ Reader II and the detection was directly converted to conversion ratio (ratio of phosphorylated to non-phosphorylated peptide).
For estimation of IC50, the % substrate conversion values are transformed to % relative activity by applying the following equation: […]

CDK6 = CDK6 (Homo sapiens (Human), UniProt Q00534); test: CDK6 Inhibition Assay; type: biochemical
Description: as §1, with “CDK6” for “CDK4”, “nL” for “nL of”, “a new” for “anew”

CDK2 = CDK2 (Homo sapiens (Human), UniProt P24941); test: CDK2 Inhibition Assay; type: biochemical
Description: (§2) CDK2 Inhibition Assay. […] The same volume of DMSO was adopted as high control. 20 nL of the test compound solution in DMSO were dispensed into a new 384-well assay plate by Echo 550. […] Kinase assay buffer supplemented with substrate peptides was employed as low control to monitor the background. 400 µM ATP was prepared in kinase assay buffer containing and 5 μL of ATP solution was added to each well to start the reaction. The assay plate was incubated at 25° C. for 90 minutes and the reaction was stopped by adding 40 μL of 0.5 M EDTA.
Phosphorylated fluorescent-tagged peptides were differentiated from non-phosphorylated peptides by separating using Caliper EZ Reader II and the detection was directly converted to conversion ratio.

CDK5 = CDK5 (Homo sapiens (Human), UniProt Q00535); test: CDK5 Inhibition Assay; type: biochemical
Description: as §2, with “CDK5” for “CDK2”, “40” for “400”

[1] = Metabolic stability in human liver microsomes; type: in vitro ADME; conditions: human liver microsomes 0.5 mg/mL
Description: (§3) Metabolic stability of compounds is assessed at […] with human, rat, mouse, dog, and monkey liver microsomes (0.5 mg/mL). Compound and protein are equilibrated at 37° C. for 5 min prior to reaction initiation with co-factor NADPH. […] After quenching and centrifugation, supernatants were analyzed by LC-MS with methods specific to compounds tested.

[2] = Metabolic stability in rat liver microsomes; type: in vitro ADME; conditions: rat liver microsomes 0.5 mg/mL
Description: as §3

[3] = Metabolic stability in mouse liver microsomes; type: in vitro ADME; conditions: mouse liver microsomes 0.5 mg/mL
Description: as §3

[4] = Metabolic stability in dog liver microsomes; type: in vitro ADME; conditions: dog liver microsomes 0.5 mg/mL
Description: as §3

[5] = Metabolic stability in monkey liver microsomes; type: in vitro ADME; conditions: monkey liver microsomes 0.5 mg/mL
Description: as §3

HS68 cells = HS68 cells treated for 24 hours
Description: HS68 cells (human skin fibroblast cell line, ATCC) were treated for 24 hours with compounds of the present invention at 0, 1, 3, 10, 30, 100, 300, or 1,000 nmol/L final concentration. Cells were harvested and fixed in ice-cold 70% ethanol (Sigma-Aldrich). Fixed cells were washed with PBS, stained with 40 μg/mL propidium iodide (Thermofisher Scientific), 10 g RNAseA (Sigma-Aldrich) in PBS-CMF (calcium magnesium free). Samples were processed using flow cytometer (Fisher), and cell-cycle analysis was completed using FlowJo software (Tree Star).

[6] = Mouse pharmacokinetics (p.o. and i.v.)
Description: Blood samples were taken at 0.083, 0.25, 0.5, 1.0, 3.0, 6.0 and 24 hours post i.v. dosing and at 0.25, 0.5, 1.0, 3.0, 6.0 and 24 hours post p.o. dosing. The plasma concentration of compounds were determined by HPLC.

HSPCs = conditions: CDK4/6 dependent subsets of healthy cells such as HSPCs; cited from earlier work

Chain of CDK4 (P11802 whole entry): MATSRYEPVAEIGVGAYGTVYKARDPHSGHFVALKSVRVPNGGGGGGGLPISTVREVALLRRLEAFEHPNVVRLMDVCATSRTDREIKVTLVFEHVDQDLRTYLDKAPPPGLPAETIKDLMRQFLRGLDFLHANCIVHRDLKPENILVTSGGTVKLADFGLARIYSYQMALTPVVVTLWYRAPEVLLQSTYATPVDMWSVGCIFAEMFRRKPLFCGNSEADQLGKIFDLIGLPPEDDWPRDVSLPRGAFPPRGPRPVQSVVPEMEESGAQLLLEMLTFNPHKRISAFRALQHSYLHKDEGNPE
Chain of CDK4 (P30281 whole entry partner): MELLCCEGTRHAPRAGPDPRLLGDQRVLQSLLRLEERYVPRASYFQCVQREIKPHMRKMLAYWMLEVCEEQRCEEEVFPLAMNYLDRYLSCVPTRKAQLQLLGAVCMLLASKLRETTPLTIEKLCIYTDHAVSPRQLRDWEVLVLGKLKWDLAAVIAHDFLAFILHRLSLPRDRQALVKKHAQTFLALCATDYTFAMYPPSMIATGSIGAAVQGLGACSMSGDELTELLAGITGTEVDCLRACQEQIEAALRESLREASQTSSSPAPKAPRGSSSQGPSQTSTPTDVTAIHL
Chain of CDK6 (Q00534 whole entry): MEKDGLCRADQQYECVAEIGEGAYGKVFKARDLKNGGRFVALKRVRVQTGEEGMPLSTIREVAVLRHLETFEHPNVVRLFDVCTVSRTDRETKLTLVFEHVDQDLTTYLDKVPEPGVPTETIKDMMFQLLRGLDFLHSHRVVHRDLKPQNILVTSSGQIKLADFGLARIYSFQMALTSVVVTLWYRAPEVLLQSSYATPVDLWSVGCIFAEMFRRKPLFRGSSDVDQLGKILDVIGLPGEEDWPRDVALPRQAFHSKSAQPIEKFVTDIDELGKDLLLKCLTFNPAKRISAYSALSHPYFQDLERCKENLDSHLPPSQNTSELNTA
Chain of CDK6 (P30281 whole entry partner): as the sequence (P30281 whole entry partner) above
Chain of CDK5 (Q00535 whole entry): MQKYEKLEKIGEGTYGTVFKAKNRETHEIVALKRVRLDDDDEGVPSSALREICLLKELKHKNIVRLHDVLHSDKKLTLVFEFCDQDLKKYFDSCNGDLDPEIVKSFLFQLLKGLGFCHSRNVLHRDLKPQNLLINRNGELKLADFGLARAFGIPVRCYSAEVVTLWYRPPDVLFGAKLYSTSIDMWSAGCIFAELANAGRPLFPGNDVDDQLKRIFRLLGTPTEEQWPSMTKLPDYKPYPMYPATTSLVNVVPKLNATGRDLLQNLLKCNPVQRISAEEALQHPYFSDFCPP
Chain of CDK5 (Q15078 99-307 partner): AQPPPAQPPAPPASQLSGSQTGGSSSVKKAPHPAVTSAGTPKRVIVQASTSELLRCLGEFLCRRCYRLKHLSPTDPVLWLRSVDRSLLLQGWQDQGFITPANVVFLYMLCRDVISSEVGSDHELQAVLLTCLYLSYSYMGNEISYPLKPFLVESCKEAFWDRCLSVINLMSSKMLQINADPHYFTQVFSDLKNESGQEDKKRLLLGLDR

Row | Structure (SMILES) | IC50 (CDK4) [nM] | IC50 (CDK6) [nM] | IC50 (CDK2; read-out: CDK2 IC50) | IC50 (CDK5) [nM] | further results
1 | CCN1CCC(COc2ccc(Nc3cc(-c4cc(F)c5nc6n(c5c4)C(C)(C)CC6)c(F)cn3)nc2)CC1 [Example 9, N-(5-((1-ethylpiperidin-4-yl)methoxy)pyridin-2-yl)-5-fluoro-4-(5-fluoro-1,1-dimethyl-2,3-dihydro-1H-benzo[d]pyrrolo[1,2-a]imidazol-7-yl)pyridin-2-amine] | 0.1 | 2.9 | 24.7 nM | 11.3 | IC50 (CDK2): 14.7 nM
2 | CN(C)[C@H]1CCN(c2ccc(Nc3ncc(F)c(-c4cc(F)c5nc6n(c5c4)C(C)(C)CC6)n3)nc2)C1 [Example 7, (S)—N-(5-(3-(dimethylamino)pyrrolidin-1-yl)pyridin-2-yl)-5-fluoro-4-(5-fluoro-1,1-dimethyl-2,3-dihydro-1H-benzo[d]pyrrolo[1,2-a]imidazol-7-yl)pyrimidin-2-amine] | 0.18 | 3.96 | 65.5 nM | 50.6 | IC50 (CDK2): 16.1 nM
3 | CC1(C)CCc2nc3c(F)cc(-c4nc(Nc5ccc6c(n5)CCN(C(=O)CO)C6)ncc4F)cc3n21 [Example 5, 1-(2-(5-fluoro-4-(5-fluoro-1,1-dimethyl-2,3-dihydro-1H-benzo[d]pyrrolo[1,2-a]imidazol-7-yl)pyrimidin-2-ylamino)-7,8-dihydro-1,6-naphthyridin-6 (5H)-yl)-2-hydroxyethanone, reference compound] | 0.12 | 1.87 | 17.6 nM | 36.8 | –
4 | CC1(C)CCc2nc3c(F)cc(-c4nc(Nc5ccc(OCC6CCN(CCCO)CC6)cn5)ncc4F)cc3n21 [Example 11, 3-(4-((6-(5-fluoro-4-(5-fluoro-1,1-dimethyl-2,3-dihydro-1H-benzo[d]pyrrolo[1,2-a]imidazol-7-yl)pyrimidin-2-ylamino)pyridin-3-yloxy)methyl)piperidin-1-yl)propan-1-ol] | 0.11 | 1.02 | 44.9 nM | 128 | –
5 | CN(C)[C@H]1CCN(C(=O)c2ccc(Nc3ncc(F)c(-c4cc(F)c5nc6n(c5c4)C(C)(C)CC6)n3)nc2)C1 [Example 6, (S)-(3-(dimethylamino)pyrrolidin-1-yl)(6-(5-fluoro-4-(5-fluoro-1,1-dimethyl-2,3-dihydro-1H-benzo[d]pyrrolo[1,2-a]imidazol-7-yl)pyrimidin-2-ylamino)pyridin-3-yl)methanone] | 0.2 | 1.19 | 20.4 nM | 19.1 | IC50 (CDK2): 5.62 nM
6 | CC1(C)CCc2nc3c(F)cc(-c4nc(Nc5ccc(OC6CCN(CCO)CC6)cn5)ncc4F)cc3n21 [Example 14, 2-(4-(6-(5-fluoro-4-(5-fluoro-1,1-dimethyl-2,3-dihydro-1H-benzo[d]pyrrolo[1,2-a]imidazol-7-yl)pyrimidin-2-ylamino)pyridin-3-yloxy)piperidin-1-yl)ethanol] | 0.25 | 2.72 | 70.3 nM | 213 | –
7 | CCN1CCC(c2ccc(Nc3ncc(F)c(-c4cc(F)c5nc6n(c5c4)C(C)(C)CC6)n3)nc2)CC1 [Example 3, N-(5-(1-ethylpiperidin-4-yl)pyridin-2-yl)-5-fluoro-4-(5-fluoro-1,1-dimethyl-2,3-dihydro-1H-benzo[d]pyrrolo[1,2-a]imidazol-7-yl)pyrimidin-2-amine, reference compound] | 0.08 | 1.93 | 114 nM and 91 nM | 38.3 | –
8 | CCN1CCC(COc2ccc(Nc3ncc(F)c(-c4cc(F)c5nc6n(c5c4)C(C)(C)CC6)n3)nc2)CC1 [Example 8, N-(5-((1-ethylpiperidin-4-yl)methoxy)pyridin-2-yl)-5-fluoro-4-(5-fluoro-1,1-dimethyl-2,3-dihydro-1H-benzo[d]pyrrolo[1,2-a]imidazol-7-yl)pyrimidin-2-amine] | – | – | 368 nM | 705 | IC50 (CDK2): 285 nM; half-life ([1]; NADPH, 37° C.): 1.34 h; CLint scaled ([1]; scaled): 21.7 mL/min/kg; half-life ([2]; NADPH, 37° C.): 1.29 h; CLint scaled ([2]; scaled): 32.2 mL/min/kg; half-life ([3]; NADPH, 37° C.): 0.45 h; CLint scaled ([3]; scaled): 202 mL/min/kg; half-life ([4]; NADPH, 37° C.): 0.402 h; CLint scaled ([4]; scaled): 143 mL/min/kg; half-life ([5]; NADPH, 37° C.): 0.223 h; CLint scaled ([5]; scaled): 151 mL/min/kg; G1 % (max) (HS68 cells): 79.35%; F ([6]; 10 mg/kg p.o. vs 2 mg/kg i.v.): 45.6%; AUC(0-t) ([6]; plasma, iv, 2 mg/kg): 2110 ng·h/mL; Vd ([6]; plasma, iv, 2 mg/kg): 3.71 L/kg; clearance ([6]; plasma, iv, 2 mg/kg): 15.7 mL/min/kg; half-life ([6]; plasma, iv, 2 mg/kg): 3.36 h; AUC(0-t) ([6]; plasma, po, 10 mg/kg): 4820 ng·h/mL; Cmax ([6]; plasma, po, 10 mg/kg): 340 ng/mL; Tmax ([6]; plasma, po, 10 mg/kg): 6 h
9 | CN1CCN(c2ccc(Nc3ncc4cc5n(c4n3)C3(CCCCC3)CNC5=O)nc2)CC1 [Example G1T28] | – | – | – | – | cell cycle arrest (HSPCs): transient cell cycle arrest
10 | CCN1CCN(c2ccc(Nc3ncc(F)c(-c4cc(F)c5nc6n(c5c4)C(C)(C)CC6)n3)nc2)CC1 [Example 15, N-(5-(4-ethylpiperazin-1-yl)pyridin-2-yl)-5-fluoro-4-(5-fluoro-1,1-dimethyl-2,3-dihydro-1H-benzo[d]pyrrolo[1,2-a]imidazol-7-yl)pyrimidin-2-amine, reference compound] | 0.07 | 0.88 | 117 nM and 21.6 nM | 46.8 | –
11 | CN1CCC(Oc2ccc(Nc3ncc(F)c(-c4cc(F)c5nc6n(c5c4)C(C)(C)CC6)n3)nc2)CC1 [Example 10, 5-fluoro-4-(5-fluoro-1,1-dimethyl-2,3-dihydro-1H-benzo[d]pyrrolo[1,2-a]imidazol-7-yl)-N-(5-(1-methylpiperidin-4-yloxy)pyridin-2-yl)pyrimidin-2-amine] | 0.26 | 2.46 | 64.1 nM | 136 | –
12 | CC(=O)c1c(C)c2cnc(Nc3ccc(N4CCNCC4)cn3)nc2n(C2CCCC2)c1=O [PD-0332991] | – | – | – | – | cell cycle arrest (HSPCs): transient cell cycle arrest
13 | CN1CCC(OCc2ccc(Nc3ncc(F)c(-c4cc(F)c5nc6n(c5c4)C(C)(C)CC6)n3)nc2)CC1 [Example 13, 5-fluoro-4-(5-fluoro-1,1-dimethyl-2,3-dihydro-1H-benzo[d]pyrrolo[1,2-a]imidazol-7-yl)-N-(5-((1-methylpiperidin-4-yloxy)methyl)pyridin-2-yl)pyrimidin-2-amine] | 0.25 | 3.92 | 174 nM | 433 | –
14 | CN1CCC(COc2ccc(Nc3ncc(F)c(-c4cc(F)c5nc6n(c5c4)C(C)(C)CC6)n3)nc2)CC1 [Example 12, 5-fluoro-4-(5-fluoro-1,1-dimethyl-2,3-dihydro-1H-benzo[d]pyrrolo[1,2-a]imidazol-7-yl)-N-(5-((1-methylpiperidin-4-yl)methoxy)pyridin-2-yl)pyrimidin-2-amine] | 0.11 | 1.89 | 55.2 nM | 159 | –
15 | CCN1CCN(Cc2ccc(Nc3ncc(F)c(-c4cc(F)c5nn6c(c5c4)CCC6)n3)nc2)CC1 [Example 16, N-(5-((4-ethylpiperazin-1-yl)methyl)pyridin-2-yl)-5-fluoro-4-(6-fluoro-2,3-dihydro-1H-pyrrolo[1,2-b]indazol-8-yl)pyrimidin-2-amine] | 9.46 | 93.7 | > 10000 nM | > 10000 | –
